# In US12728132B2, “Inhibitors of the peptidyl-prolyl cis/trans isomerase (PIN1), combinations and uses thereof” (DANA-FARBER CANCER INSTITUTE, INC., priority 2021, dated 2026):
# *1 amine or outer side, *2 acyl side, *3 side chain or, on linkers, in order; H or OH if unused. Where a SMILES comes first, the peptide text is derived from it. Where no end group is shown, it is not given here. [ ]: non-standard residue; d: D form. The star is where a group is joined. Pro(13C,15N) = carbon and nitrogen isotope labeled proline, O=[13C]([13C@@H]1[13CH2][13CH2][13CH2][15N]1[*:1])[*:2]; pS = N[C@@H](COP(=O)(O)O)C(=O)O; Cbz = O=C(OCc1ccccc1)*
# Legend:
# [1] = system: Pin1 in MDA-MB-231 cells; experiment: Immunoblot of Pin1 inhibitor-induced Pin1 degradation with proteasome inhibitors; assay type: cell-based, human; details: MDA-MB-231, AApin 3 days; 10 μM MG132 or 1 μM bortezomib last 12 hrs
# Experimental: For IB analysis, cells were lysed in RIPA buffer (Thermo) supplemented with protease inhibitors (Sigma) and phosphatase inhibitors (Sigma). Protein concentrations were measured using Protein Assay Dye Reagent (Bio-Rad) and a Beckman Coulter. Equal amounts of protein were resolved by SDS-PAGE and probed with indicated antibodies. For immunoprecipitation analysis, cells were lysed in IP lysis buffer (Thermo) and pre-cleared by Mouse IgG-Agarose (Sigma) for 1 hour at 4° C. and then incubated with anti-Flag M2-Agarose (Sigma) for 2 hours at 4° C. The agaroses were washed four times with IP lysis buffer and boiled in standard Laemmli-Buffer with 5% final concentration of β-mercaptoethanol before being resolved by SDS-PAGE and immunoblotted with indicated antibodies.
# Exploration of the intrinsic upstream regulators that could affect Pin1 protein stability was then sought.
# [2] = system: K14cre; p53^f/f; Brca1^f/f tumors; experiment: Survival and tumor growth, Brca1-deficient immunocompetent TNBC mouse model; assay type: in vivo; details: mice bearing K14cre, n=6 per group
# Description: (§1) All animal experiments were approved by the IACUC of the Beth Israel Deaconess Medical Center. Maximum permitted the longest dimension of tumors was 20 mm. Pieces from breast tumors generated in K14cre; p53^f/f; Brca1^f/f or K14cre; p53^wt/f; Brca1^wt/f female mice were transplanted into the mammary pad of 6-week-old FVB female mice. For survival studies, treatments were started once the tumors reached 3-5 mm in diameter and continued until mice were symptomatic or tumors reached 20 mm in any direction, at which point mice were euthanized. For time point analysis, mice were sacrificed two weeks post-treatment initiation. Control and anti-PD-L1 antibody (clone 29E.2A3) treatments were conducted by intraperitoneal injection with a dosage of 200 μg per mouse every three days. sulfopin treatment was given by intraperitoneal injection with a dosage of 60 mg/kg (7 days/week), abemaciclib treatment was given by oral gavage with a dosage of 100 mg/kg (7 days/week), or drug combinations in which each compound was administered at the same dose and scheduled as a single agent. Tumor sizes were measured every three days by caliper after implantation and tumor volume was calculated by the modified ellipsoidal formula: tumor volume=½length×width^2. The investigators were not blinded to allocation during experiments and outcome assessment.
# [3] = system: K14cre; p53^wt/f; Brca1^wt/f tumors; experiment: Survival and tumor growth, Brca1-proficient immunocompetent TNBC mouse model; assay type: in vivo; details: mice bearing K14cre, n=10 per group
# Description: as §1
# [4] = system: K14cre; Brca1^+/−; p53^−/−-TNBC; experiment: Survival until mandatory euthanasia, syngeneic FVB/N TNBC model with or without anti-PD-L1; assay type: in vivo; details: syngeneic FVB/N mice, time to mandatory euthanasia (tumor size 2 cm)
# Description: All animal experiments were approved by the IACUC of the Beth Israel Deaconess Medical Center. Maximum permitted the longest dimension of tumors was 20 mm. Pieces from breast tumors generated in K14cre; p53^f/f; Brca1^f/f or K14cre; p53^wt/f; Brca1^wt/f female mice were transplanted into the mammary pad of 6-week-old FVB female mice. For survival studies, treatments were started once the tumors reached 3-5 mm in diameter and continued until mice were symptomatic or tumors reached 20 mm in any direction, at which point mice were euthanized. For time point analysis, mice were sacrificed two weeks post-treatment initiation. […] Tumor sizes were measured every three days by caliper after implantation and tumor volume was calculated by the modified ellipsoidal formula: tumor volume=½length×width^2. […]
# A total of 86 FVB/N mice were grafted syngeneically with the K14cre; Brca1^+/−; p53″/tumors. […] Time to mandatory euthanasia (tumor size 2 cm) was recorded. […] Statistical significance was calculated using a two-sided log-rank test.
# [5] = system: K14cre; p53^wt/f, Brca1^wt/f BT3 tumors; experiment: Survival and tumor growth, FVB mice bearing BT3 tumors; assay type: in vivo; details: n=10 mice per group
# Description: as §1
# [6] = system: TNBC; details: single agents; cited from earlier work
# [7] = system: TNBC patient-derived xenograft (TM00096); experiment: In vivo therapy for TNBC patient-derived xenografts (PDOX); design: species or system human tumor in BALB/c nude mice; details: Rb-proficient TNBC PDOX, nude mice
# Experimental: All animal experiments were approved by the IACUC of the Beth Israel Deaconess Medical Center. Triple-negative BC patient-derived xenograft (TM00096) was purchased from Jackson Laboratories. Pieces from PDOX tumors were subcutaneously implanted into flank of 6-week-old BALB/c female nude mice. Tumor sizes were measured every three days by caliper after implantation and tumor volume was calculated by the modified ellipsoidal formula: tumor volume=½length×width^2. Treatments were started once the tumors reached 5 mm in diameter and continued until tumors reached 15 mm in any direction. […] Sulfopin treatment was given by intraperitoneal injection with a dosage of 40 mg/kg (dissolved solution: 5% DMSO in D5W, 7 days/week), palbociclib treatment was given by oral gavage with a dosage of 100 mg/kg (dissolved solution: saline, 5 days/week), abemaciclib treatment was given by oral gavage with a dosage of 100 mg/kg (dissolved solution: 0.5% CMC-Na, 5 days/week), or drug combinations in which each compound was administered at the same dose and scheduled as a single agent. […]
# PDOX tumor tissue sections were boiled in 10 mM sodium citrate (pH 6.0), for antigen retrieval after deparaffinization. […] Slides were scanned at least three different representative areas at 20× magnification using BZ-X800 fluorescence microscope (KEYENCE).
# [8] = system: MCF-7 cells; experiment: Time-lapse single-cell tracking with APC-degron reporter; assay type: cell-based, human; details: single living cells tracked, asynchronous MCF-7
# Experimental: MCF-7 cells were stably expressed with mCherry-Geminin (1-110) and a histone H2B-Turquoise. Cells were then plated 24 hours before starting the microscope acquisition. Pin1 inhibitors or CDK4/6 inhibitors were added in the medium and imaged using a Nikon Eclipse TE-2000 inverted microscope with a 10× Plan Apo objective and a Hammamatsu Orca ER camera, equipped with environmental chamber controlling temperature, atmosphere (5% CO2) and humidity. Images were acquired every 30 min using the MetaMorph Software. For each condition filmed, 4 different fields were selected.
# p53Cinema single cell analysis package was used for semiautomatic tracking of individual cells in live cell imaging datasets as described previously (Reyes et al., Mol Cell 2018; 71:581-91 e5). Tracking data were then used to quantify intensity of fluorescent reporters from background subtracted images by averaging 10 pixels within the cell nucleus. Cells were tracked using only information about a constitutively expressed nuclear marker, such as H2B-Turquoise, and were thus blind to the dynamics of molecular players of interest, such as mCherry-Geminin. Only cells that remained within the field of view throughout the entire duration of the experiment were considered for downstream analyses. […] S/G2 durations were calculated by the time that cells spent in S/G2 phase after drugs were added.
# [9] = system: Cdh1 binding to Pin1 WW and PPIase domains; experiment: GST-Pin1 pull-down of HA-Cdh1 after sulfopin treatment; assay type: cell-based, human; details: MCF-7 cells expressing HA-Cdh1, sulfopin 3 days, 10 μM MG132 last 12 hrs
# Experimental: GST pull-down was performed as described previously (Lee et al., Mol Cell 2011; 42:147-59). Briefly, cells were stably expressing indicated proteins and lysed in pull-down buffer (20 mM Tris pH 8.0, 150 mM NaCl, 1 mM EDTA pH 8.0, 0.5% Nonidet-P40). The cell extracts were pre-cleared by glutathione agarose beads and incubated with 1 μM GST or GST fusion proteins overnight at 4° C. Protein complexes were recovered on glutathione agarose beads for 2 hours at 4° C., washed four to six times with pull-down buffer and eluted by boiling in SDS-containing sample buffer. Bound proteins were resolved by SDS-PAGE.
# To further define the molecular mechanism of Cdh1-mediated Pin1 degradation, the interaction of Pin1 and Cdh1 was examined using GST pull-down assays using GST-Pin1 point mutations. IB analysis of GST pull-down precipitates derived from 293T cells transfected with HA-Cdh1 and GST-Pin1 mutants as indicated for 36 hrs. The graphs were one representative experiment out of three independent experiments. […] FIG. 1K and FIG. 1L show the shift of Cdh1 binding from the WW− to the PPIase domain of Pin1 upon inhibition of PPIase activity. […] Bottom graphs quantification of IB analysis for bound HA-Cdh1. […]
# [10] = molecular target: T1, Pin1 (Homo sapiens, UniProt Q13526); experiment: NMR titration of Cdh1 phosphopeptide with Pin1; assay type: binding; details: NMR chemical shift perturbation, pH 6.6, 25° C.
# T1 sequence (Q13526 whole entry, the tested form may be a part): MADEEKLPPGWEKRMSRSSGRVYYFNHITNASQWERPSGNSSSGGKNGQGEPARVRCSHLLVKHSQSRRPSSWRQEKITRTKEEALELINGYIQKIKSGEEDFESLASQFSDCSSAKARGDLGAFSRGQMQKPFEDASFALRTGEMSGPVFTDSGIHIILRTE
# Experimental: All NMR experiments were acquired on Bruker NEO 600 MHz spectrometer equipped with a TCI cryoprobe at 25° C. 0.1 mM ^13C, ^15N-enriched Pin1 sample dissolved in pH 6.6 buffer made-up of 20 mM Potassium Phosphate, 100 mM NaSO4 and 10% D2O was used to study peptide interaction. NMR assignments of Pin1 were taken from the BMRB database (accession number 27579) and confirmed using 3D-HNCA experiment. Synthetic peptides Cdh1-pS163 (comprised of Cdh1 residues 161-183 with phosphorylated Ser163 and isotope labeled Pro164, LR (pS)P(^13C, ^15N) […]) (SEQ ID NO: 27). were purchased from Pepmic. A systematic titration between Pin1 and phosphopeptide was performed by acquiring 2D-HSQC spectra. The absolute average chemical shift perturbation was calculated by using an equation, [(A8H2+ (A8N/5) 2)/2]½, available in software NMRFAM Sparky version 1.414.
# [11] = molecular target: T1, Pin1; experiment: Proline isomerization study by 13C-HSQC NMR; assay type: biochemical
# Description: Commercially synthesized specific ^13C, ^15N-P164 labeled Cdh1 phosphopeptide was used to facilitate direct quantitative determination of the cis and trans proline populations. The strong ^13C-HSQC peaks originating from Pro164 can be easily distinguished from the weak peaks due to ~1% natural abundance ^13C present in the rest of the peptide. […] Based on the interpretation of the chemical shifts, the major peaks were assigned as trans isomer and the minor peaks were assigned as cis isomer (Schubert et al. J Biomol NMR 24, 149-154 (2002)). The proline resonance assignments were further confirmed using a 2D-^13C-HSQCTOCSY experiment while no attempts were made to stereospecifically assign proton resonances, thus the assignment of HB2 and HB3, HG2 and HG3, and HD2 and HD3 are interchangeable. 58 μM free peptide and its complex with a 4-fold molar excess of Pin1, dissolved in the above-mentioned NMR buffer were used to estimate the cis and trans isomer populations at 25° C.
molecule,measurement,setting,value
CC(C)C[C@@H](C=O)NC(=O)[C@H](CC(C)C)NC(=O)[C@H](CC(C)C)NC(=O)OCc1ccccc1 [MG132] (Cbz-Leu-Leu-Leu-aldehyde),Pin1 inhibitor-induced Pin1 degradation,[1],rescued
CCN1CCN(Cc2ccc(Nc3ncc(F)c(-c4cc(F)c5nc(C)n(C(C)C)c5c4)n3)nc2)CC1 [abemaciclib],median survival,[2],31.5 days
same,median survival,[3],25 days
same,median survival,[4],31 days
CC(C)C[C@H](NC(=O)[C@H](Cc1ccccc1)NC(=O)c1cnccn1)B(O)O [bortezomib],Pin1 inhibitor-induced Pin1 degradation,[1],rescued
CC(=O)c1c(C)c2cnc(Nc3ccc(N4CCNCC4)cn3)nc2n(C2CCCC2)c1=O [palbociclib],median survival,[5],21 days
CN(C)C(=O)c1cc2cnc(Nc3ccc(N4CCNCC4)cn3)nc2n1C1CCCC1 [ribociclib],single agent activity in TNBC,[6],neither palbociclib nor ribociclib has activity in TNBC
CC(C)(C)CN(C(=O)CCl)C1CCS(=O)(=O)C1 (centres unmarked) [sulfopin],median survival,[2],27 days
same,median survival,[3],25 days
same,median survival,[5],21 days
same,median survival,[4],22.5 days
same,tumor growth,[7],limited single agent activity
same,S/G2 duration,[8],strikingly prolonged S/G2 phases
same,binding mode of Cdh1 to Pin1,[9],shift from binding to the WW domain to the PPIase domain
"Cdh1-pS163: Cdh1 residues 161-183 with phosphorylated Ser163 and isotope labeled Pro164 (SEQ ID NO: 27) (LR[pS][Pro(13C,15N)]RKPTRKISKIPFKVLDAPE)",binding to the Pin1 WW domain,[10],moderately strong affinity
same,cis-P164 isomer population,"[11]; 1:4 complex with Pin1, 25° C.",14.2%
same,cis-P164 isomer population,"[11]; free peptide, 58 μM, 25° C.",7%
